Reference: ChEMBL document CHEMBL3046275, “EBHU18, a novel derivative of fatty acid bile acid conjugates, prevents cholesterol gallstone formation in experimental mice” (Med Chem Res, 2012)
Activity calls are given as the source filed them. The calls are words filed in the database; no cut-off is given here.

What was measured:
Mus musculus [1] = test: Toxicity in lithogenic diet-fed Mus musculus C57BL/6 (mouse) assessed as change in body weight at 10 mg/kg/day, po followed by lithogenic diet feeding for 8 weeks (reference value: 30.82 +/- 2.88 g); assay type: organism-based; design: route oral; details: in vivo, 1344 h
Mus musculus [2] = test: Toxicity in lithogenic diet-fed Mus musculus C57BL/6 (mouse) assessed as change in body weight at 10 mg/kg/day, po after 8 weeks; assay type: organism-based; design: route oral; details: in vivo, 1344 h
Mus musculus [3] = test: Reduction of lithogenic diet-induced fatty liver formation in Mus musculus C57BL/6 (mouse) at 10 mg/kg/day, po followed by lithogenic diet feeding for 8 weeks by hematoxylin-eosin staining relative to untreated control; assay type: functional, organism-based
Mus musculus [4] = test: Reduction of lithogenic diet-induced gallstone formation in Mus musculus C57BL/6 (mouse) at 10 mg/kg/day, po followed by lithogenic diet feeding for 8 weeks by infrared photoacoustic spectroscopic analysis (reference value: 1.53 +/- 0.63 g); assay type: functional
Mus musculus [5] = test: Hepatoprotective activity in lithogenic diet-fed Mus musculus C57BL/6 (mouse) assessed as decrease in serum total cholesterol level at 10 mg/kg/day, po after 8 weeks relative to untreated control; assay type: functional, organism-based
Mus musculus [6] = test: Hepatoprotective activity in lithogenic diet-fed Mus musculus C57BL/6 (mouse) assessed as decrease in serum total cholesterol level at 10 mg/kg/day, po followed by lithogenic diet feeding for 8 weeks (reference value: 2.24 +/- 0.27 mmol/l); assay type: functional
Mus musculus [7] = test: Hepatoprotective activity in lithogenic diet-fed Mus musculus C57BL/6 (mouse) assessed as decrease in serum triglyceride level at 10 mg/kg/day, po after 8 weeks relative to untreated control; assay type: functional, organism-based
Mus musculus [8] = test: Hepatoprotective activity in lithogenic diet-fed Mus musculus C57BL/6 (mouse) assessed as decrease in serum ALT level at 10 mg/kg/day, po after 8 weeks relative to untreated control; assay type: functional, organism-based
Mus musculus [9] = test: Hepatoprotective activity in lithogenic diet-fed Mus musculus C57BL/6 (mouse) assessed as decrease in serum ALT level at 10 mg/kg/day, po followed by lithogenic diet feeding for 8 weeks (reference value: 42.6 +/- 7.63 IU/L); assay type: functional
Mus musculus [10] = test: Protection against lithogenic diet-induced gallstone formation in Mus musculus C57BL/6 (mouse) at 10 mg/kg/day, po after 8 weeks by infrared photoacoustic spectroscopic analysis relative to untreated control; assay type: functional, organism-based
Mus musculus [11] = test: Hepatoprotective activity in lithogenic diet-fed Mus musculus C57BL/6 (mouse) assessed as decrease in serum triglyceride level at 10 mg/kg/day, po followed by lithogenic diet feeding for 8 weeks (reference value: 1.01+/- 0.15 mmol/l); assay type: functional
Mus musculus [12] = test: Hepatoprotective activity in lithogenic diet-fed Mus musculus C57BL/6 (mouse) assessed as decrease in serum ALT level at 3 mg/kg/day, po followed by lithogenic diet feeding for 8 weeks (reference value: 42.6 +/- 7.63 IU/L); assay type: functional
Mus musculus [13] = test: Reduction of lithogenic diet-induced fatty liver formation in Mus musculus C57BL/6 (mouse) at 0.5 to 3 mg/kg/day, po after 8 weeks by hematoxylin-eosin staining relative to untreated control; assay type: functional, organism-based
Mus musculus [14] = test: Hepatoprotective activity in lithogenic diet-fed Mus musculus C57BL/6 (mouse) assessed as decrease in serum ALT level at 0.5 mg/kg/day, po followed by lithogenic diet feeding for 8 weeks (reference value: 42.6 +/- 7.63 IU/L); assay type: functional
Mus musculus [15] = test: Protection against lithogenic diet-induced gallstone formation in Mus musculus C57BL/6 (mouse) at 0.5 mg/kg/day, po after 8 weeks by infrared photoacoustic spectroscopic analysis relative to untreated control; assay type: functional, organism-based
Mus musculus [16] = test: Protection against lithogenic diet-induced gallstone formation in Mus musculus C57BL/6 (mouse) at 3 mg/kg/day, po after 8 weeks by infrared photoacoustic spectroscopic analysis relative to untreated control; assay type: functional, organism-based
Mus musculus [17] = test: Toxicity in lithogenic diet-fed Mus musculus C57BL/6 (mouse) assessed as change in body weight at 0.5 to 3 mg/kg/day, po after 8 weeks; assay type: organism-based; design: route oral; details: in vivo, 1344 h
Mus musculus [18] = test: Hepatoprotective activity in lithogenic diet-fed Mus musculus C57BL/6 (mouse) assessed as decrease in serum ALT level at 0.5 to 3 mg/kg/day, po after 8 weeks relative to untreated control; assay type: functional, organism-based
Mus musculus [19] = test: Hepatoprotective activity in lithogenic diet-fed Mus musculus C57BL/6 (mouse) assessed as decrease in serum total cholesterol level at 3 mg/kg/day, po followed by lithogenic diet feeding for 8 weeks (reference value: 2.24 +/- 0.27 mmol/l); assay type: functional
Mus musculus [20] = test: Hepatoprotective activity in lithogenic diet-fed Mus musculus C57BL/6 (mouse) assessed as decrease in serum total cholesterol level at 0.5 mg/kg/day, po followed by lithogenic diet feeding for 8 weeks (reference value: 2.24 +/- 0.27 mmol/l); assay type: functional
Mus musculus [21] = test: Hepatoprotective activity in lithogenic diet-fed Mus musculus C57BL/6 (mouse) assessed as decrease in serum triglyceride level at 3 mg/kg/day, po followed by lithogenic diet feeding for 8 weeks (reference value: 1.01+/- 0.15 mmol/l); assay type: functional
Mus musculus [22] = test: Reduction of lithogenic diet-induced fatty liver formation in Mus musculus C57BL/6 (mouse) at 0.5 to 3 mg/kg/day, po followed by lithogenic diet feeding for 8 weeks by hematoxylin-eosin staining relative to untreated control; assay type: functional, organism-based
Mus musculus [23] = test: Hepatoprotective activity in lithogenic diet-fed Mus musculus C57BL/6 (mouse) assessed as decrease in serum triglyceride level at 0.5 to 3 mg/kg/day, po after 8 weeks relative to untreated control; assay type: functional, organism-based
Mus musculus [24] = test: Hepatoprotective activity in lithogenic diet-fed Mus musculus C57BL/6 (mouse) assessed as decrease in serum total cholesterol level at 0.5 to 3 mg/kg/day, po after 8 weeks relative to untreated control; assay type: functional, organism-based
Mus musculus [25] = test: Toxicity in lithogenic diet-fed Mus musculus C57BL/6 (mouse) assessed as change in body weight at 3 mg/kg/day, po followed by lithogenic diet feeding for 8 weeks (reference value: 30.82 +/- 2.88 g); assay type: organism-based; design: route oral; details: in vivo, 1344 h
Mus musculus [26] = test: Hepatoprotective activity in lithogenic diet-fed Mus musculus C57BL/6 (mouse) assessed as decrease in serum triglyceride level at 0.5 mg/kg/day, po followed by lithogenic diet feeding for 8 weeks (reference value: 1.01+/- 0.15 mmol/l); assay type: functional
Mus musculus [27] = test: Reduction of lithogenic diet-induced gallstone formation in Mus musculus C57BL/6 (mouse) at 0.5 mg/kg/day, po followed by lithogenic diet feeding for 8 weeks by infrared photoacoustic spectroscopic analysis (reference value: 1.53 +/- 0.63 g); assay type: functional
Mus musculus [28] = test: Toxicity in lithogenic diet-fed Mus musculus C57BL/6 (mouse) assessed as change in body weight at 0.5 mg/kg/day, po followed by lithogenic diet feeding for 8 weeks (reference value: 30.82 +/- 2.88 g); assay type: organism-based; design: route oral; details: in vivo, 1344 h
Mus musculus [29] = test: Reduction of lithogenic diet-induced gallstone formation in Mus musculus C57BL/6 (mouse) at 3 mg/kg/day, po followed by lithogenic diet feeding for 8 weeks by infrared photoacoustic spectroscopic analysis (reference value: 1.53 +/- 0.63 g); assay type: functional

## C[C@H](CCC(=O)O)[C@H]1CC[C@H]2[C@@H]3[C@@H](O)C[C@@H]4C[C@H](O)CC[C@]4(C)[C@H]3CC[C@]12C [URSODIOL]
Mus musculus [1]
  Activity: 31.76 g
Mus musculus [2]
  Activity: Non-toxic
Mus musculus [3]
  Activity: inactive
Mus musculus [4]
  Activity: 1.41 g
Mus musculus [5]
  Activity: Active
Mus musculus [6]
  Activity: 2.16 mmol/L
Mus musculus [7]
  Activity: Active
Mus musculus [8]
  Activity: Active
Mus musculus [9]
  Activity: 38 IU/L
Mus musculus [10]
  Activity: inactive
Mus musculus [11]
  Activity: 0.75 mmol/L

## CCCCCCCCCCCCCCCCCCCC(=O)NCCCCC(NC(=O)CC[C@@H](C)[C@H]1CC[C@H]2[C@@H]3C(O)C[C@@H]4C[C@H](O)CC[C@]4(C)[C@H]3C[C@H](O)[C@]12C)C(=O)O (some centres undefined)
Mus musculus [12]
  Activity: 36.5 IU/L
Mus musculus [13]
  Activity: Active
Mus musculus [14]
  Activity: 34.8 IU/L
Mus musculus [15]
  Activity: inactive
Mus musculus [16]
  Activity: Active
Mus musculus [17]
  Activity: Non-toxic
Mus musculus [18]
  Activity: Active
Mus musculus [19]
  Activity: 2.04 mmol/L
Mus musculus [20]
  Activity: 2.09 mmol/L
Mus musculus [21]
  Activity: 0.74 mmol/L
Mus musculus [22]
  Activity: Active
Mus musculus [23]
  Activity: Active
Mus musculus [24]
  Activity: Active
Mus musculus [25]
  Activity: 31.74 g
Mus musculus [26]
  Activity: 0.76 mmol/L
Mus musculus [27]
  Activity: 1.02 g
Mus musculus [28]
  Activity: 31.89 g
Mus musculus [29]
  Activity: 0.96 g
